# According to publication PMC12948223, “HSP70 Interactome‐Mediated Proteolysis Targeting Chimera (HSP70‐PROTAC) for Ferroptosis‐Driven Cancer Treatment” (Advanced Science, 2025):
# How the values were obtained:
# [1] = test system: GSH; test: Intracellular GSH in HT1080 cells; assay type: cell-based, human; conditions: 0.5 and 1 µM, 24 h
# Experimental: HT1080 cells were seeded into 10‐cm‐diameter culture dishes at a density of 2 × 10⁶ cells overnight and then exposed to GDAz‐3 (0.1, 0.5, and 1 µM). Followed by 24‐h incubation, the culture medium was discarded, and the cells were digested with trypsin. The cells were collected and washed with PBS, and threefold of protein removal reagent S was added. Two freeze‐thaw cycles were performed using liquid nitrogen and a 37 °C water bath, followed by a 5‐min ice bath. The samples were centrifuged at 10 000 × g for 10 min at 4 °C. The supernatant was collected and measured according to the instructions of the Total Glutathione Assay Kit (Beyotime Biotechnology, S0052) using a kinetic assay method.
# [2] = test system: intracellular ROS; test: Intracellular ROS (DCFH-DA, CLSM) in HT1080 cells; assay type: cell-based, human; conditions: 1 µM, 24 h
# Experimental: To assess the total intracellular levels of reactive oxygen species (ROS), a DCFH‐DA (Dichloro‐dihydro‐fluorescein diacetate) assay kit was utilized. Briefly, HT1080 cells were seeded into confocal laser culture dishes and allowed to adhere for 24 h. Afterward, the cells were treated with GDAz‐3 at a concentration of 1 µM for 24 h. Subsequently, a DCFH‐DA probe was added to the cells and they were incubated for 20 min. After washing twice with PBS, the cells were visualized and imaged using a confocal laser scanning microscopy (CLSM).
# [3] = target: T1, GPX4 (Homo sapiens, UniProt P36969); test: In-cell western (ICW) GPX4 degradation in HT1080 cells; assay type: cell-based; design: determine the changes in the endogenous levels of GPX4 by western blot assay; endogenous in cells; host or cells: HT1080 fibrosarcoma cells, including siRNA-knockdown derivatives; conditions: 24 h
# T1 sequence (P36969 1-170 isoform P36969-2): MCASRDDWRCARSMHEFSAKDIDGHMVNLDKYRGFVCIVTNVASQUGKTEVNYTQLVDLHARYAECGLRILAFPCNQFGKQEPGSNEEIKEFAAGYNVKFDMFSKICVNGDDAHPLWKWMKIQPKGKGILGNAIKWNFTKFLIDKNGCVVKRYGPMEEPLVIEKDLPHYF
# Experimental: To further confirm this degradation efficacy, an in‐cell western (ICW) assay, a quantitative immunofluorescence cell‐based technique, was performed to quantify the relative expression level of GPX4 after treatment with GDAz‐3 for 24 h. […] Given the promising GPX4 degradation activity of GDAz‐3, we extended our evaluation to additional ferroptosis‐sensitive cell lines, including triple‐negative breast cancer cells (MDA‐MB‐231) and melanoma cells (mouse B16‐F10). […] Based on the observation that GDAz‐3 was particularly effective in HT1080 cells, we selected this cell line for further degradation mechanism and ferroptosis pharmacodynamics studies.
# HT1080 cells were seeded into 96‐well plates at a density of 1 × 10⁴ cells per well and cultured overnight. After 24‐h treatment with the drugs, the culture medium was removed, and 150 µL of 4% paraformaldehyde was added to each well to fix the cells at 4 °C for 20 min. The paraformaldehyde was removed, and 150 µL of 0.2% Triton X‐100 was added to each well. The cells were permeabilized by shaking at room temperature for 30 min. After removing the Triton X‐100, 50 µL of 1% BSA buffer was added to each well, and shaken at room temperature for 90 min. […] The PBS was discarded, and the plates were read using a Typhoon biomolecular imager (Cytiva, GPX4: wavelength 680 nm; GAPDH: 800 nm).
# [4] = target: T1, GPX4; test: GPX4 and 4-HNE in HT1080 xenograft tumor tissue (IHC, western blot); assay type: in vivo, nude mice; design: from tissue; host or cells: HT1080 xenograft tumour tissue from BALB/c nude mice
# Excerpt: In addition, the tumor samples from the six treatment groups were randomly collected and probed for the levels of GPX4, and 4‐HNE (4‐hydroxynonenal, a lipid peroxidation marker) by immunohistochemistry (IHC) staining (Figure 7G). […] Collectively, the HSP70‐PROTAC GDAz‐3 has been confirmed as an effective ferroptosis‐inducing agent, which can degrade GPX4 both in vitro and in vivo via UPS and CMA dual processes.
# The experimental procedures of the animal experiments were permitted by the Hangzhou Institute of Medicine (HIM), Chinese Academy of Sciences (AP2024‐07‐0010). Male BALB/c nude mice (6 weeks old) were housed under pathogen‐free conditions, maintained at a constant room temperature, and fed standard rodent chow and water. An HT1080 fibrosarcoma xenograft model in nude mice was established through subcutaneous transplantation. When the tumors emerged, the mice were randomly divided into six groups with six mice in each group: […], including the vehicle group, and each of the two inhibitor‐treated groups (ML162 and apoptozole) at 30 mg kg^−1, and their combinations. […] Body weight and tumor size were measured every other day, and the tumor volume and body weight were recorded every other day after drug treatment. After treatment, the animals were euthanized by cervical dislocation, and the tumor bulks were peeled off and weighed. The organ tissues (tumor, heart, liver, spleen, lung, and kidney) were harvested and fixed with 4% paraformaldehyde for hematoxylin‐eosin (H&E) and immunohistochemistry (IHC) staining. In addition, the expression of GPX4 in tumor samples was analyzed in vehicle‐ and GDAz‐3‐treated groups by western blot assay.
# [5] = 30 and 60 mg/kg, vs vehicle group
compound,measurement,setting,value
"COc1ccc(-c2nc(-c3cc(C(F)(F)F)cc(C(F)(F)F)c3)n(Cc3ccc(C(=O)NCCOCCOCCOCCn4cc(COc5ccc(N(C(=O)CCl)C(C(=O)NCCc6ccccc6)c6cccs6)cc5Cl)nn4)cc3)c2-c2ccc(OC)cc2)cc1 (stereo not drawn) [GDAz-3, 4-((2-(3,5-bis(trifluoromethyl)phenyl)-4,5-bis(4-methoxyphenyl)-1H-imidazol-1-yl)methyl)-N-(2-(2-(2-(2-(4-((2-chloro-4-(2-chloro-N-(2-oxo-2-(phenethylamino)-1-(thiophen-2-yl)ethyl)acetamido)phenoxy)methyl)-1H-1,2,3-triazol-1-yl)ethoxy)ethoxy)ethoxy)ethyl)benzamide]",Level of intracellular GSH,[1],significantly decreased
same,Level of intracellular ROS,[2],enhanced
same,DC50,[3],250 nM
same,4-HNE levels in tumor (IHC),[4]; [5],increase in 4‐HNE levels
same,GPX4 levels in tumor (IHC),[4]; [5],reduction in GPX4 levels
same,GPX4 protein in HT1080 tumor tissue (western blot),[4]; single IP injection 50 mg/kg,"reduce the level of GPX4 protein over the vehicle control at the 12, 24, and 36 h time points"
